The text below walks through data of patent publication US10260105B2, “MiR-320e and colorectal cancer” (BAYLOR RESEARCH INSTITUTE, priority 2014, dated 2019).

The subject of this assay is stage II and III CRC. Put plainly: Kaplan-Meier DFS and OS estimates in validation cohort patients treated with 5-FU-based adjuvant chemotherapy. In kind it is in vivo. To be noted: 167 stage II and III CRC patients, 5-FU-based adjuvant chemotherapy for 6 months after tumor resection. How it is done:
Validation Patient Cohort. This group included a total of 237 CRC patients (65 stage II, 102 stage III, and 70 stage IV) that were enrolled as part of a clinical trial conducted at the Hospital Clinic, Barcelona, Spain. Patients in this clinical trial were enrolled between 1996 and 2008, and the median follow-up was 4.7 years in patients that were alive at last follow-up, and 3.5 years for all patients. All stage II and III patients were treated with 5-FU-based adjuvant chemotherapy following resection of the primary tumor; all stage IV patients were treated with 5-FU and oxaliplatin (Takahashi, et al., 2012). Normal colonic mucosa (n=20) from healthy individuals was obtained from the Pathology Department of the Hospital Clinic of Barcelona and included as controls. This study was approved by the Institutional Review Board (IRB) of Hospital Clinic, Barcelona, Spain, and a written informed consent was obtained from all patients.
Distributions in the validation cohort are presented as mean (SD) or median (range) depending on level of skewness in the data for continuous variables, or as counts (percentage) for categorical variables. Nonparametric tests (rank sum, Kruskal Wallace) were used to compare expression between groups. Kaplan Meier and Cox regression models were used to assess association with time to event outcomes that included overall survival (OS), defined as time from diagnosis to death, and disease free survival (DFS) defined as time from diagnosis to disease recurrence or death. Due to the scale of miR320e expression, hazard ratios are presented as the change in risk of a person at the 75th percentile relative to a person at the 25th percentile of miR-320e distribution. This can be interpreted as the increase in risk due to a patient moving from the middle of the bottom half of the miR-320e distribution to the middle of the top half of the distribution. Bootstrapping was used to calculate an optimism corrected c-index, analogous to the area under the receiver operating characteristic curve (Steyerberg, et al., 2011). A c-index of 0.5 denotes random predictions, whereas a c index of 1 denotes perfect predictions.
Higher expression miR320e is associated with poor outcome in patients with stage II and III CRC. To determine the potential prognostic significance of miR-320e expression, Cox regression models were utilized with the miRNA expression levels considered as continuous variables. There were 167 stage II and III CRC patients in the validation cohort with sufficient data for these analyses. All of these patients were treated with 5-FU-based adjuvant chemotherapy for 6 months subsequent to tumor resection. Of these patients, 65 out of 167 (38.9%) were stage II and the remainder were stage III. […]

With `O=c1[nH]cc(F)c(=O)[nH]1` [5-FU, 5-fluorouracil], under “2 years”, the “2-year Kaplan-Meier DFS estimate” value is listed as 78.32% and the “2-year OS estimate” value is on record as 91.57%. Besides, where the note is “5 years”, the “5-year Kaplan-Meier DFS estimate” value is 63.96% and the “5-year OS estimate” value is reported as 78.52%.
